Test: Saltiness evaluation of shiokara (comparison evaluation of flavor by 10 panelists)
Format: in vivo
Details: for Evaluation A: the number of panelists who felt stimulation of saltiness / Evaluation B: the number of panelists who slightly felt stimulation of saltiness / Evaluation N: the number of panelists who judged that the stimulation of saltiness was reduced to mild saltiness / Flavor judgment: the number of panelists who judged it as most proper saltiness: 10 panelists
Protocol: Sedanenolide was added as a saltiness-improving agent (salty stimulation-reducing agent) of the present invention to commercially available salted squid to obtain shiokara containing sedanenolide at the concentrations shown in the following Table 1.
A: the number of panelists who felt stimulation of saltiness B: the number of panelists who slightly felt stimulation of saltiness N: the number of panelists who judged that the stimulation of saltiness was reduced to mild saltiness Flavor judgment: the number of panelists who judged it as most proper saltiness

[1] = shiokara containing 0.01 ppb sedanenolide
[2] = shiokara containing 0.01 ppm sedanenolide
[3] = shiokara containing 0.1 ppb sedanenolide
[4] = shiokara containing 0.1 ppm sedanenolide
[5] = shiokara containing 1 ppb sedanenolide
[6] = shiokara containing 1 ppm sedanenolide
[7] = shiokara containing 1 ppt sedanenolide
[8] = shiokara containing 10 ppm sedanenolide

## CCCC[C@@H]1OC(=O)C2=C1CCC=C2 [sedanenolide]
Amount of sedanenolide about 0.1 ppb to 1 ppm
  saltiness improvement, overall result: particularly good results
Low concentration of 0.01 ppb sedanenolide
  improvement in stimulation of saltiness: some panelists felt some improvement in stimulation of saltiness
[1]
  Evaluation A: the number of panelists who felt stimulation of saltiness: 6
  Evaluation B: the number of panelists who slightly felt stimulation of saltiness: 4
  Evaluation N: the number of panelists who judged that the stimulation of saltiness was reduced to mild saltiness: 0
  Flavor judgment: the number of panelists who judged it as most proper saltiness: 0
Shiokara containing 0.01 ppb to 10 ppm of sedanenolide
  stimulation of saltiness: improved
[2]
  Evaluation A: the number of panelists who felt stimulation of saltiness: 2
  Evaluation B: the number of panelists who slightly felt stimulation of saltiness: 2
  Evaluation N: the number of panelists who judged that the stimulation of saltiness was reduced to mild saltiness: 6
  Flavor judgment: the number of panelists who judged it as most proper saltiness: 3
[3]
  Evaluation A: the number of panelists who felt stimulation of saltiness: 2
  Evaluation B: the number of panelists who slightly felt stimulation of saltiness: 7
  Evaluation N: the number of panelists who judged that the stimulation of saltiness was reduced to mild saltiness: 1
  Flavor judgment: the number of panelists who judged it as most proper saltiness: 0
[4]
  Evaluation A: the number of panelists who felt stimulation of saltiness: 1
  Evaluation B: the number of panelists who slightly felt stimulation of saltiness: 2
  Evaluation N: the number of panelists who judged that the stimulation of saltiness was reduced to mild saltiness: 7
  Flavor judgment: the number of panelists who judged it as most proper saltiness: 4
[5]
  Evaluation A: the number of panelists who felt stimulation of saltiness: 3
  Evaluation B: the number of panelists who slightly felt stimulation of saltiness: 2
  Evaluation N: the number of panelists who judged that the stimulation of saltiness was reduced to mild saltiness: 5
  Flavor judgment: the number of panelists who judged it as most proper saltiness: 0
[6]
  Evaluation A: the number of panelists who felt stimulation of saltiness: 0
  Evaluation B: the number of panelists who slightly felt stimulation of saltiness: 1
  Evaluation N: the number of panelists who judged that the stimulation of saltiness was reduced to mild saltiness: 9
  Flavor judgment: the number of panelists who judged it as most proper saltiness: 2
[7]
  Evaluation A: the number of panelists who felt stimulation of saltiness: 10
  Evaluation B: the number of panelists who slightly felt stimulation of saltiness: 0
  Evaluation N: the number of panelists who judged that the stimulation of saltiness was reduced to mild saltiness: 0
  Flavor judgment: the number of panelists who judged it as most proper saltiness: 0
[8]
  Evaluation A: the number of panelists who felt stimulation of saltiness: 0
  Evaluation B: the number of panelists who slightly felt stimulation of saltiness: 1
  Evaluation N: the number of panelists who judged that the stimulation of saltiness was reduced to mild saltiness: 9
  Flavor judgment: the number of panelists who judged it as most proper saltiness: 1

Reference: US20120225180A1, “SALTINESS-IMPROVING AGENT FOR SALTY FOOD AND DRINK” (priority 2009, published 2012)
